In PubChem BioAssay AID1963828 (Molecular Pharmacology Branch, DTP, NCI, 2024):

System: 991263-137-R1-J2-PDC complex spheroid viability
Assay: Anticancer human tumor 991263-137-R1-J2-PDC patient-derived colon adenocarcinoma cell line growth inhibition [POLQ]
Settings: for IC50: curve of first compound; for viability, T/C: stronger effect = lower value
How it was run: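 Growth inhibition in 3D: complex spheroids (tumor PDC, HUVEC, MSC) treated with POLQ inhibitor combinations; where Cmax unknown, highest tested concentration 10 microM, except SN-38 at 1 microM.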

[1] = second compound 0.0316 µM, first compound 0.0316 µM
[2] = second compound 0.0316 µM, first compound 0.1 µM
[3] = second compound 0.0316 µM, first compound 0.316 µM
[4] = second compound 0.0316 µM, first compound 1 µM
[5] = second compound 0.0316 µM, first compound 3.16 µM
[6] = second compound 0.0316 µM, first compound 10 µM
[7] = second compound 0.1 µM, first compound 0.0316 µM
[8] = second compound 0.1 µM, first compound 0.1 µM
[9] = second compound 0.1 µM, first compound 0.316 µM
[10] = second compound 0.1 µM, first compound 1 µM
[11] = second compound 0.1 µM, first compound 3.16 µM
[12] = second compound 0.1 µM, first compound 10 µM
[13] = second compound 0.316 µM, first compound 0.0316 µM
[14] = second compound 0.316 µM, first compound 0.1 µM
[15] = second compound 0.316 µM, first compound 0.316 µM
[16] = second compound 0.316 µM, first compound 1 µM
[17] = second compound 0.316 µM, first compound 3.16 µM
[18] = second compound 0.316 µM, first compound 10 µM
[19] = second compound 1 µM, first compound 0.0316 µM
[20] = second compound 1 µM, first compound 0.1 µM
[21] = second compound 1 µM, first compound 0.316 µM
[22] = second compound 1 µM, first compound 1 µM
[23] = second compound 1 µM, first compound 3.16 µM
[24] = second compound 1 µM, first compound 10 µM
[25] = second compound 3.16 µM, first compound 0.0316 µM
[26] = second compound 3.16 µM, first compound 0.1 µM
[27] = second compound 3.16 µM, first compound 0.316 µM
[28] = second compound 3.16 µM, first compound 1 µM
[29] = second compound 3.16 µM, first compound 3.16 µM
[30] = second compound 3.16 µM, first compound 10 µM
[31] = second compound 10 µM, first compound 0.0316 µM
[32] = second compound 10 µM, first compound 0.1 µM
[33] = second compound 10 µM, first compound 0.316 µM
[34] = second compound 10 µM, first compound 1 µM
[35] = second compound 10 µM, first compound 3.16 µM
[36] = second compound 10 µM, first compound 10 µM
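Note: spheroids exposed to compounds for 7 days before readout.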
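Throughout, for viability, T/C: 100% = DMSO vehicle control viability.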

Structure (SMILES): COc1ccc([C@@H](O)c2cc(-c3ncnc4cc(N5CCOCC5)ccc34)c(F)cc2Cl)nn1 + COC1C(OC(N)=O)C(O)C(Oc2ccc3c(O)c(NC(=O)c4ccc(O)c(CC=C(C)C)c4)c(=O)oc3c2C)OC1(C)C
- IC50 (second compound 0.0316 µM): 5.41 µM
- IC50 (second compound 0.1 µM): 4.12 µM
- IC50 (second compound 0.316 µM): 5.53 µM
- IC50 (second compound 1 µM): 2.94 µM
- IC50 (second compound 3.16 µM): 6.38 µM
- IC50 (second compound 10 µM): 6.09 µM
- viability, T/C [1]: 107%
- viability, T/C [2]: 96.3%
- viability, T/C [3]: 90.8%
- viability, T/C [4]: 76.2%
- viability, T/C [5]: 71.7%
- viability, T/C [6]: 31.5%
- viability, T/C [7]: 99.8%
- viability, T/C [8]: 98.3%
- viability, T/C [9]: 84.6%
- viability, T/C [10]: 91.7%
- viability, T/C [11]: 55.6%
- viability, T/C [12]: 30.9%
- viability, T/C [13]: 82.7%
- viability, T/C [14]: 107%
- viability, T/C [15]: 88.5%
- viability, T/C [16]: 71%
- viability, T/C [17]: 70.5%
- viability, T/C [18]: 33%
- viability, T/C [19]: 95.3%
- viability, T/C [20]: 107%
- viability, T/C [21]: 96.8%
- viability, T/C [22]: 70.7%
- viability, T/C [23]: 51.9%
- viability, T/C [24]: 32.6%
- viability, T/C [25]: 94.3%
- viability, T/C [26]: 101%
- viability, T/C [27]: 96.7%
- viability, T/C [28]: 85.6%
- viability, T/C [29]: 79.9%
- viability, T/C [30]: 32.2%
- viability, T/C [31]: 88.1%
- viability, T/C [32]: 103%
- viability, T/C [33]: 94.8%
- viability, T/C [34]: 111%
- viability, T/C [35]: 67.1%
- viability, T/C [36]: 37.1%

Structure (SMILES): O=C(Nc1ccc(O)c(NS(=O)(=O)c2ccc(F)cc2)c1)c1ccc(-c2ccccc2)cc1 + COC1C(OC(N)=O)C(O)C(Oc2ccc3c(O)c(NC(=O)c4ccc(O)c(CC=C(C)C)c4)c(=O)oc3c2C)OC1(C)C
- IC50 (second compound 0.0316 µM): > 10 µM
- IC50 (second compound 0.1 µM): > 10 µM
- IC50 (second compound 0.316 µM): > 10 µM
- IC50 (second compound 1 µM): > 10 µM
- IC50 (second compound 3.16 µM): > 10 µM
- IC50 (second compound 10 µM): > 10 µM
- viability, T/C [1]: 87.8%
- viability, T/C [2]: 111%
- viability, T/C [3]: 112%
- viability, T/C [4]: 93.5%
- viability, T/C [5]: 89.3%
- viability, T/C [6]: 105%
- viability, T/C [7]: 110%
- viability, T/C [8]: 119%
- viability, T/C [9]: 113%
- viability, T/C [10]: 79.6%
- viability, T/C [11]: 110%
- viability, T/C [12]: 93.5%
- viability, T/C [13]: 93.9%
- viability, T/C [14]: 112%
- viability, T/C [15]: 92.8%
- viability, T/C [16]: 106%
- viability, T/C [17]: 93.1%
- viability, T/C [18]: 92.8%
- viability, T/C [19]: 119%
- viability, T/C [20]: 101%
- viability, T/C [21]: 100%
- viability, T/C [22]: 109%
- viability, T/C [23]: 109%
- viability, T/C [24]: 96.3%
- viability, T/C [25]: 101%
- viability, T/C [26]: 103%
- viability, T/C [27]: 91.2%
- viability, T/C [28]: 79.1%
- viability, T/C [29]: 111%
- viability, T/C [30]: 79.6%
- viability, T/C [31]: 96.5%
- viability, T/C [32]: 112%
- viability, T/C [33]: 103%
- viability, T/C [34]: 104%
- viability, T/C [35]: 102%
- viability, T/C [36]: 91.5%
